For orientation: Papp means a coefficient for how fast a substance crosses the barrier. As a reminder, the efflux ratio is the permeability from basolateral to apical divided by that in the opposite direction, in the common usage.

SMILES strings stand for the structures. Read-outs that look alike come from different tables or passages of the source.

For data set [1], the system named is jejunum. The conditions noted are these: mucosal to serosal direction, cited from earlier work.
Data set [2] in a line: Ussing chamber drug transport across adult intestinal tissue. The note with it: human.
For data set [3], the system named is adult terminal ileum tissue. The description is as above. The conditions noted are these: adult, M > S (mucosal to serosal).
Data set [4] in a line: Ussing chamber drug transport across pediatric intestinal tissue. The note with it: human.
For data set [5] the following is noted: human in vivo; cited from earlier work.
[6] abbreviates: adult jejunum, ref Michiba et al., 2021 [19].
Setting [7] is: Papp, estimated marginal mean ± SE, adult, M > S (mucosal to serosal), mixed model.
Where [8] appears, read: Papp, estimated marginal mean ± SE, adult, S > M (serosal to mucosal), mixed model.
The mark [9] stands for this setting: Papp, mean ± SD, adult, M > S (mucosal to serosal).
The mark [10] stands for this setting: Papp, mean ± SD, adult, S > M (serosal to mucosal).
Setting [11] is: Papp, estimated marginal mean ± SE, pediatric, M > S (mucosal to serosal), mixed model.
[12] abbreviates: Papp, estimated marginal mean ± SE, pediatric, S > M (serosal to mucosal), mixed model.
[13] abbreviates: Papp, mean ± SD, pediatric, M > S (mucosal to serosal).
Setting [14] is: Papp, mean ± SD, pediatric, S > M (serosal to mucosal).

In the case of `CC(C)NCC(O)COc1cccc2ccccc12` (stereo not shown) [Propranolol], the apparent permeability (Papp) in data set [1] (setting [6]) is 7.8 ± 4.6 × 10^−6 cm/s; in data set [2] (setting [7]), 12 ± 1.28 ×10⁻⁶ cm/s; in data set [2] (setting [8]), 10.3 ± 1.27 ×10⁻⁶ cm/s; in data set [2] (setting [9]) it was 12.4 ± 6.2 ×10⁻⁶ cm/s; in data set [2] (setting [10]), 10.7 ± 5.02 ×10⁻⁶ cm/s; in data set [4] (setting [11]), 7.98 ± 1.45 ×10⁻⁶ cm/s. For the same molecule, the Papp in data set [4] (setting [12]) is 7.74 ± 1.47 ×10⁻⁶ cm/s; in data set [4] (setting [13]), 7.49 ± 4.58 ×10⁻⁶ cm/s; in data set [4] (setting [14]) it was 8.27 ± 4.7 ×10⁻⁶ cm/s. For the same molecule, in data set [3], the “Papp, mean ± SD” value is 12.38 ± 6.15 ×10^–6 cm/s.

Take `CC(C)c1nc(N(C)S(C)(=O)=O)nc(-c2ccc(F)cc2)c1/C=C/[C@@H](O)C[C@@H](O)CC(=O)O` [Rosuvastatin]: the Papp was 1.6 ± 0.6 × 10^−6 cm/s in data set [1] (setting [6]); 7.0 ± 1.0 × 10^−6 cm/s in data set [1] (jejunum, ref Sjoberg et al., 2013 [17]); 6.32 ± 0.97 ×10⁻⁶ cm/s in data set [2] (setting [7]); 11.2 ± 0.91 ×10⁻⁶ cm/s in data set [2] (setting [8]); 6.3 ± 2.8 ×10⁻⁶ cm/s in data set [2] (setting [9]); 11.2 ± 5.49 ×10⁻⁶ cm/s in data set [2] (setting [10]). The apparent permeability coefficient (Papp) in data set [4] (setting [11]) is 3.8 ± 0.88 ×10⁻⁶ cm/s; in data set [4] (setting [12]), 7.53 ± 1 ×10⁻⁶ cm/s; in data set [4] (setting [13]), 4.73 ± 2.04 ×10⁻⁶ cm/s; in data set [4] (setting [14]) it was 7.53 ± 3.66 ×10⁻⁶ cm/s. Also, the fraction absorbed in data set [5] is 50%. Moreover, the efflux ratio in data set [2] was 2.1 ± 1; in data set [4], 1.3 ± 0.6. Also, the apparent permeability (Papp) at 4 µM in data set [2] (setting [10]) stood at 11.2 ± 5.5 ×10⁻⁶ cm/s; in data set [4] (setting [14]), 7.5 ± 3.7 ×10⁻⁶ cm/s.

The record behind these values is PMC9579398 (Clinical and Translational Science, 2022).
